Data: PubChem BioAssay (NCI)
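Results reflect a 48-hour exposure of cells in 96-well plates to compound at five concentrations. Here, GI50 denotes the concentration required for 50% inhibition of growth. TGI: concentration producing complete growth inhibition.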

Tests used:
Assay in all cases: growth of human tumour cells (NCI), 48 h
HOP-92 NSCLC = system: HOP-92 NSCLC
IGROV1 ovarian = system: IGROV1 ovarian
K-562 leukemia = system: K-562 leukemia
LOX IMVI melanoma = system: LOX IMVI melanoma
OVCAR-8 ovarian = system: OVCAR-8 ovarian
RPMI-8226 leukemia = system: RPMI-8226 leukemia
SN12C renal = system: SN12C renal
SNB-19 CNS = system: SNB-19 CNS
T-47D breast = system: T-47D breast
SK-OV-3 ovarian = system: SK-OV-3 ovarian

NS(=O)(=O)c1cc2c(cc1Cl)NCNS2(=O)=O
TGI (HOP-92 NSCLC): > 100 µM
TGI (IGROV1 ovarian): > 100 µM
TGI (K-562 leukemia): > 100 µM
TGI (LOX IMVI melanoma): > 100 µM
TGI (OVCAR-8 ovarian): > 100 µM
TGI (RPMI-8226 leukemia): > 100 µM
TGI (SN12C renal): > 100 µM
TGI (SNB-19 CNS): > 100 µM
TGI (T-47D breast): > 100 µM

N#CC1(CCCCl)CCCCC1
TGI (HOP-92 NSCLC): > 100 µM
TGI (IGROV1 ovarian): > 100 µM
TGI (LOX IMVI melanoma): > 100 µM
TGI (OVCAR-8 ovarian): > 100 µM
TGI (SK-OV-3 ovarian): > 100 µM
TGI (SN12C renal): > 100 µM
TGI (SNB-19 CNS): > 100 µM

CN(C)c1ccc(/C=N/N=C(\C#N)[S][Sn]([Cl])([c]2ccccc2)[c]2ccccc2)cc1
GI50 (HOP-92 NSCLC): 1.42 µM
TGI (HOP-92 NSCLC): 2.87 µM
GI50 (IGROV1 ovarian): 1.99 µM
TGI (IGROV1 ovarian): 4.63 µM
GI50 (K-562 leukemia): 0.339 µM
TGI (K-562 leukemia): 3.55 µM
GI50 (LOX IMVI melanoma): 1.04 µM
TGI (LOX IMVI melanoma): 2.31 µM
GI50 (OVCAR-8 ovarian): 2.15 µM
TGI (OVCAR-8 ovarian): 4.91 µM
GI50 (RPMI-8226 leukemia): 1.43 µM
TGI (RPMI-8226 leukemia): 5.15 µM
GI50 (SK-OV-3 ovarian): 2.78 µM
GI50 (SN12C renal): 1.59 µM
TGI (SN12C renal): 3.12 µM
GI50 (SNB-19 CNS): 1.99 µM
TGI (SNB-19 CNS): 3.65 µM

OC[C@H]1C[C@](O)(c2ccc(F)cc2)[C@@H](c2ccc(F)cc2)O1
GI50 (HOP-92 NSCLC): 66 µM
TGI (HOP-92 NSCLC): > 100 µM
GI50 (IGROV1 ovarian): 58.3 µM
TGI (IGROV1 ovarian): > 100 µM
GI50 (K-562 leukemia): > 100 µM
TGI (K-562 leukemia): > 100 µM
GI50 (LOX IMVI melanoma): > 100 µM
TGI (LOX IMVI melanoma): > 100 µM
GI50 (OVCAR-8 ovarian): > 100 µM
TGI (OVCAR-8 ovarian): > 100 µM
GI50 (RPMI-8226 leukemia): > 100 µM
TGI (RPMI-8226 leukemia): > 100 µM
GI50 (SK-OV-3 ovarian): > 100 µM
TGI (SK-OV-3 ovarian): > 100 µM
GI50 (SN12C renal): > 100 µM
TGI (SN12C renal): > 100 µM
GI50 (SNB-19 CNS): > 100 µM
TGI (SNB-19 CNS): > 100 µM

COc1ccc([C@@H]2[C@@H](Oc3ccccc3)C(=O)N2c2cc(OC)c(OC)c(OC)c2)cc1F
GI50 (HOP-92 NSCLC): 0.722 µM
TGI (HOP-92 NSCLC): > 100 µM
GI50 (IGROV1 ovarian): 0.257 µM
TGI (IGROV1 ovarian): > 100 µM
GI50 (K-562 leukemia): 0.0417 µM
TGI (K-562 leukemia): > 100 µM
GI50 (LOX IMVI melanoma): 0.091 µM
TGI (LOX IMVI melanoma): > 100 µM
GI50 (OVCAR-8 ovarian): 0.189 µM
TGI (OVCAR-8 ovarian): > 100 µM
GI50 (RPMI-8226 leukemia): 0.207 µM
TGI (RPMI-8226 leukemia): 5.64 µM
GI50 (SK-OV-3 ovarian): 0.38 µM
TGI (SK-OV-3 ovarian): > 100 µM
GI50 (SN12C renal): 0.383 µM
TGI (SN12C renal): > 100 µM
GI50 (SNB-19 CNS): 0.175 µM
TGI (SNB-19 CNS): > 100 µM

O=C(O)c1cn(C2CC2)c2cc(N3CCN(C(=O)N(c4ccccc4)c4nc(-c5ccccc5)cs4)CC3)c(F)cc2c1=O
GI50 (HOP-92 NSCLC): 0.241 µM
TGI (HOP-92 NSCLC): 0.948 µM
GI50 (IGROV1 ovarian): 0.393 µM
TGI (IGROV1 ovarian): > 100 µM
GI50 (OVCAR-8 ovarian): 0.378 µM
TGI (OVCAR-8 ovarian): > 100 µM
GI50 (SN12C renal): 0.308 µM
TGI (SN12C renal): > 100 µM
GI50 (SNB-19 CNS): 0.416 µM
TGI (SNB-19 CNS): > 100 µM
GI50 (T-47D breast): 2.3 µM
TGI (T-47D breast): > 100 µM

CC(C)CCCC(C)C1CCC2C3CC([N+](=O)[O-])=C4CC(O)CCC4(C)C3CCC12C (configuration not stated)
TGI (HOP-92 NSCLC): 46.6 µM
TGI (IGROV1 ovarian): 50.1 µM
TGI (K-562 leukemia): 36.8 µM
TGI (LOX IMVI melanoma): 36.6 µM
TGI (OVCAR-8 ovarian): 47.4 µM
TGI (RPMI-8226 leukemia): 46.9 µM
TGI (SN12C renal): 32.1 µM

CCC12C=C(C(=O)OC)N3c4ccccc4C4CCN(CCC1)C2C43 (configuration not stated)
TGI (HOP-92 NSCLC): > 100 µM
TGI (IGROV1 ovarian): > 100 µM
TGI (K-562 leukemia): > 100 µM
TGI (LOX IMVI melanoma): > 100 µM
TGI (OVCAR-8 ovarian): > 100 µM
TGI (RPMI-8226 leukemia): > 100 µM
TGI (SK-OV-3 ovarian): > 100 µM
TGI (SN12C renal): > 100 µM
TGI (SNB-19 CNS): > 100 µM

Cc1ccccc1NC(=O)CC(=O)NNCC(=O)Nc1nnc(-c2ccccc2)s1
TGI (IGROV1 ovarian): > 100 µM
TGI (K-562 leukemia): > 100 µM
TGI (LOX IMVI melanoma): > 100 µM
TGI (OVCAR-8 ovarian): > 100 µM
TGI (RPMI-8226 leukemia): 75.1 µM
TGI (SN12C renal): > 100 µM
TGI (SNB-19 CNS): > 100 µM

c1cc(OCCCCCOc2cccc(-c3nc4ccccc4[nH]3)c2)cc(-c2nc3ccccc3[nH]2)c1
GI50 (HOP-92 NSCLC): 1.09 µM
TGI (HOP-92 NSCLC): 4.68 µM
GI50 (IGROV1 ovarian): 0.324 µM
TGI (IGROV1 ovarian): > 100 µM
GI50 (LOX IMVI melanoma): 2.19 µM
TGI (LOX IMVI melanoma): 6.84 µM
GI50 (OVCAR-8 ovarian): 2.53 µM
TGI (OVCAR-8 ovarian): 6.15 µM
GI50 (SK-OV-3 ovarian): 2.51 µM
TGI (SK-OV-3 ovarian): 18.1 µM
GI50 (SN12C renal): 4.61 µM
TGI (SN12C renal): > 100 µM
GI50 (SNB-19 CNS): 2.85 µM
TGI (SNB-19 CNS): > 100 µM
GI50 (T-47D breast): 0.458 µM
TGI (T-47D breast): 3.18 µM

CC(C)(C)c1ccc(OCCOCCOc2ccc(C(C)(C)C)cc2S(N)(=O)=O)c(S(N)(=O)=O)c1
TGI (HOP-92 NSCLC): > 100 µM
TGI (IGROV1 ovarian): > 100 µM
TGI (K-562 leukemia): > 100 µM
TGI (LOX IMVI melanoma): > 100 µM
TGI (OVCAR-8 ovarian): > 100 µM
TGI (RPMI-8226 leukemia): > 100 µM
TGI (SK-OV-3 ovarian): > 100 µM
TGI (SN12C renal): > 100 µM
TGI (SNB-19 CNS): > 100 µM

CC(=O)NC(CCCNC(=O)OCc1ccccc1)C(=O)NCc1ccccc1 (configuration not stated)
TGI (HOP-92 NSCLC): > 100 µM
TGI (IGROV1 ovarian): > 100 µM
TGI (K-562 leukemia): > 100 µM
TGI (LOX IMVI melanoma): > 100 µM
TGI (OVCAR-8 ovarian): > 100 µM
TGI (RPMI-8226 leukemia): > 100 µM
TGI (SK-OV-3 ovarian): > 100 µM
TGI (SN12C renal): > 100 µM
TGI (SNB-19 CNS): > 100 µM

CC1(C)CC(=O)C(C(=O)Nc2cccs2)=C(O)C1
TGI (HOP-92 NSCLC): 68.2 µM
TGI (IGROV1 ovarian): > 100 µM
TGI (K-562 leukemia): > 100 µM
TGI (LOX IMVI melanoma): > 100 µM
TGI (OVCAR-8 ovarian): > 100 µM
TGI (RPMI-8226 leukemia): > 100 µM
TGI (SK-OV-3 ovarian): > 100 µM
TGI (SN12C renal): > 100 µM
TGI (SNB-19 CNS): > 100 µM

O=C(CC1(O)C(=O)Nc2c(Cl)ccc(Cl)c21)c1ccc(Cl)cc1 (configuration not stated)
TGI (HOP-92 NSCLC): 93.9 µM
TGI (IGROV1 ovarian): 57.7 µM
TGI (LOX IMVI melanoma): 37.3 µM
TGI (OVCAR-8 ovarian): 42.1 µM
TGI (RPMI-8226 leukemia): 55.1 µM
TGI (SK-OV-3 ovarian): 90.9 µM
TGI (SN12C renal): 34.1 µM
TGI (SNB-19 CNS): > 100 µM

COc1ccc(C(C)Nc2cc(OC)c(OC)c(OC)c2)cc1 (configuration not stated)
TGI (HOP-92 NSCLC): > 100 µM
TGI (IGROV1 ovarian): > 100 µM
TGI (K-562 leukemia): > 45 µM
TGI (LOX IMVI melanoma): > 92.6 µM
TGI (OVCAR-8 ovarian): > 100 µM
TGI (RPMI-8226 leukemia): > 100 µM
TGI (SK-OV-3 ovarian): > 62.5 µM
TGI (SN12C renal): > 100 µM
TGI (SNB-19 CNS): > 100 µM

O=C(CCN1CCOCC1)Nc1ccc(Cn2nnc3c2C(=O)c2nnn(Cc4ccc(NC(=O)CCN5CCOCC5)cc4)c2C3=O)cc1
GI50 (HOP-92 NSCLC): 2.36 µM
TGI (HOP-92 NSCLC): 4.64 µM
GI50 (K-562 leukemia): 1.81 µM
TGI (K-562 leukemia): > 100 µM
GI50 (LOX IMVI melanoma): 0.678 µM
TGI (LOX IMVI melanoma): 3.37 µM
GI50 (OVCAR-8 ovarian): > 100 µM
TGI (OVCAR-8 ovarian): > 100 µM
GI50 (RPMI-8226 leukemia): 1.43 µM
TGI (RPMI-8226 leukemia): > 21.1 µM
GI50 (SK-OV-3 ovarian): > 84 µM
TGI (SK-OV-3 ovarian): > 100 µM
GI50 (SN12C renal): 0.52 µM
TGI (SN12C renal): 2 µM
GI50 (SNB-19 CNS): 1.56 µM
TGI (SNB-19 CNS): 3.07 µM

CN(C)c1ccc(/C=C2\CCc3ccccc3C2=O)cc1Br
TGI (HOP-92 NSCLC): > 100 µM
TGI (K-562 leukemia): > 100 µM
TGI (LOX IMVI melanoma): > 100 µM
TGI (OVCAR-8 ovarian): > 100 µM
TGI (RPMI-8226 leukemia): 72.9 µM
TGI (SK-OV-3 ovarian): > 100 µM
TGI (SN12C renal): > 100 µM
TGI (SNB-19 CNS): > 100 µM

COC1=CC(=O)C(O)=C(CC2(C)C(C)CCC3(C)C2CCCC3(C)C)C1=O (configuration not stated)
TGI (HOP-92 NSCLC): 7.63 µM
TGI (IGROV1 ovarian): 28.5 µM
TGI (K-562 leukemia): > 100 µM
TGI (LOX IMVI melanoma): 23.2 µM
TGI (OVCAR-8 ovarian): 26.2 µM
TGI (RPMI-8226 leukemia): 90.1 µM
TGI (SK-OV-3 ovarian): > 100 µM
TGI (SN12C renal): 15.3 µM
TGI (SNB-19 CNS): 19.3 µM
